Results: patent publication US11344488B2 (TAKASAGO INTERNATIONAL CORPORATION, priority 2017, dated 2022)

Tests used:
human TRPM8 = biological target: T1, human TRPM8 (Homo sapiens, UniProt Q7Z2W7); experiment: Evaluation of cooling intensity (TRPM8 activity evaluation), calcium fluorescence in human TRPM8 stable expression cells; assay type: cell-based; settings: TRPM8 activation action, Fluo4-AM fluorescence, 0.1 μM to 1000 μM, 32° C.
T1 construct: The full-length human TRPM8 gene was amplified from plasmid RC220615 (manufactured by Origene) using a PCR method; host or cells: Flp-In T-REx 293 cells ('Flp-In293293 cells' [sic]), pcDNA5/FRT/TO, doxycycline-induced
Description: The full-length human TRPM8 gene was amplified from plasmid RC220615 (manufactured by Origene) using a PCR method. The obtained PCR product was subcloned into pcDNA5/FRT/TO (manufactured by Thermo Fisher Scientific K.K.), and then it was introduced into Flp-In293293 cells (manufactured by Thermo Fisher Scientific K.K.) by using a Flp-InT-REx system (manufactured by Thermo Fisher Scientific K.K.), so that a human TRPM8 stable expression cell line was prepared.
The cultured human TRPM8 stable expression cells were seeded at a ratio of 50,000 cells/well to a poly-D-lysine-coated 96-well microplate (manufactured by Corning Incorporated), 1 μg/mL of doxycycline (manufactured by Takara Bio Inc.) was added thereto, and then the seeded cells were cultured at 37° C. for one night, so that the expression of the human TRPM8 was induced.
The culture solution was replaced with a buffer solution, and then, a fluorescent calcium indicator (Fluo4-AM: manufactured by Dojindo Laboratories) was added thereto, the cells were incubated at 37° C. for 30 minutes, and they were transferred to a fluorescent microplate reader (FlexStation3: manufactured by Molecular Devices, LLC.). Each of the compounds obtained in Examples and comparative compounds was added in a final concentration range of 0.1 μM to 1000 μM, and the changes in fluorescence having a wavelength of 525 nm when excited at a wavelength of 485 nm were measured at a device temperature of 32° C., and then EC50 values were determined.

oral cavity = experiment: Sensory evaluation of 30 ppm aqueous solutions in the mouth by four flavorists; assay type: in vivo, human
Description: The evaluation was performed by four flavorists. The aqueous solution was taken into the mouth and spat out after the mouth was rinsed, and cooling intensity, cool-feeling persistence, and quality of a cool-feeling in the oral cavity were evaluated.

T1 sequence (Q7Z2W7 whole entry): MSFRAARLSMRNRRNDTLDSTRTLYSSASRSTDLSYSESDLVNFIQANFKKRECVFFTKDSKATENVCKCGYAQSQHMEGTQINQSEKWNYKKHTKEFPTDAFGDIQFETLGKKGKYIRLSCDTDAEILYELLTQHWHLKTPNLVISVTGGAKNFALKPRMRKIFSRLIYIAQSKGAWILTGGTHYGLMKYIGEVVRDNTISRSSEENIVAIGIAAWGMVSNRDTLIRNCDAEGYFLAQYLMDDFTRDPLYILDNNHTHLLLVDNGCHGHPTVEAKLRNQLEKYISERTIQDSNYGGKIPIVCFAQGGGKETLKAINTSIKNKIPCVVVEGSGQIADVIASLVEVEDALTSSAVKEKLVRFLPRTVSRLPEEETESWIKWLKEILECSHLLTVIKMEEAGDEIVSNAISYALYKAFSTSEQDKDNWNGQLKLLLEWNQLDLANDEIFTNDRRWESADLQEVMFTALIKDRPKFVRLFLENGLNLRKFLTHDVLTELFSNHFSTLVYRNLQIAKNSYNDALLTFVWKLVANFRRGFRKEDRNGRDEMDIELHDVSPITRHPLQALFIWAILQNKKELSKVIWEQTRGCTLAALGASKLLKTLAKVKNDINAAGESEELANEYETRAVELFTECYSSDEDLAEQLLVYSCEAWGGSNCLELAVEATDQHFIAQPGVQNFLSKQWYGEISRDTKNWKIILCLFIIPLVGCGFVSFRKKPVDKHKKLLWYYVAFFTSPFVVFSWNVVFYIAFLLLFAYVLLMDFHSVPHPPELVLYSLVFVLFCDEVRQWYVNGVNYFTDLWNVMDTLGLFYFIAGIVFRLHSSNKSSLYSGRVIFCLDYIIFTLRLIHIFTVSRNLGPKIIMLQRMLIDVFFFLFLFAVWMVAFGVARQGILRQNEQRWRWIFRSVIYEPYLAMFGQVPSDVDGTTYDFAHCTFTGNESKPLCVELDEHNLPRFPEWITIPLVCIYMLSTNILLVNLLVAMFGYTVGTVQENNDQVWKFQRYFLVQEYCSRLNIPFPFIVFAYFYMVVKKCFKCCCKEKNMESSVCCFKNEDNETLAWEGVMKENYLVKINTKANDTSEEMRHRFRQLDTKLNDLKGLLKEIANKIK

SMILES	EC50 (human TRPM8) [µM]	melting point [°C]	also measured
CNC(=O)[C@@H]1[C@@H](C)CCCC1(C)C (stereo in doubt) [N,2,2,6-tetramethylcyclohexanecarboxamide, reference compound]	110	–	–
C[C@H]1CCCC(C)(C)[C@@H]1C(=O)NC[C@H](O)c1ccccc1 [(1R, 6S)-10-5, (1R, 6S)-N-((R)-2-hydroxy-2-phenylethyl)-2,2,6-trimethylcyclohexane-1-carboxamide]	3.96	–	–
C[C@H]1CCCC(C)(C)[C@@H]1C(=O)NCCc1ccc(O)c(O)c1 [(1R, 6S)-10-12]	2.55	75 to 77	–
COc1ccc(CCNC(=O)[C@@H]2[C@@H](C)CCCC2(C)C)cc1OC [(1R, 6S)-10-13]	7.72	–	–
C[C@H]1CCCC(C)(C)[C@@H]1C(=O)NCc1ccsc1 [(1R, 6S)-10-23]	3.48	–	–
C[C@H]1CCCC(C)(C)[C@@H]1C(=O)Nc1ccc(O)cc1 [(1R, 6S)-10-27]	6.14	–	–
C[C@H]1CCCC(C)(C)[C@@H]1C(=O)Nc1ccc2c(c1)OCO2 [(1R, 6S)-10-33]	3.75	–	–
COC(=O)c1ccc(NC(=O)[C@@H]2[C@@H](C)CCCC2(C)C)cc1 [(1R, 6S)-10-38]	5.76	–	–
C[C@H]1CCCC(C)(C)[C@@H]1C(=O)Nc1ccncc1 [(1R, 6S)-10-43]	15	–	–
C[C@H]1CCCC(C)(C)[C@H]1C(=O)NCC(=O)c1ccccc1 [(1S)-10-10, (1S, 6S)-2,2,6-trimethyl-N-(2-oxo-2-phenylethyl) cyclohexane-1-carboxamide]	2.1	–	–
C[C@@H]1CCCC(C)(C)[C@H]1C(=O)NCC(O)c1ccccc1 (stereo partly drawn) [(1S, 6R)-10-4, (1S, 6R)-N-(2-hydroxy-2-phenylethyl)-2,2,6-trimethylcyclohexane-1-carboxamide]	6.36	96 to 99	–
C[C@@H]1CCCC(C)(C)[C@H]1C(=O)NC[C@H](O)c1ccccc1 [(1S, 6R)-10-5, (1S, 6R)-N-((R)-2-hydroxy-2-phenylethyl)-2,2,6-trimethylcyclohexane-1-carboxamide]	7.68	105 to 110	–
C[C@@H]1CCCC(C)(C)[C@H]1C(=O)NC[C@@H](O)c1ccccc1 [(1S, 6R)-10-6, (1S, 6R)-N-((S)-2-hydroxy-2-phenylethyl)-2,2,6-trimethylcyclohexane-1-carboxamide]	5.98	–	–
C[C@@H]1CCCC(C)(C)[C@H]1C(=O)NCCc1ccc(O)cc1 [(1S, 6R)-10-8, (1S, 6R)-N-(4-hydroxyphenethyl)-2,2,6-trimethylcyclohexane-1-carboxamide]	5.9	180 to 182	–
COc1ccc(CNC(=O)C2[C@@H](C)CCCC2(C)C)cc1 (stereo partly drawn) [(1S, 6R)-10-28]	2.42	–	–
CCNC(=O)C(C)(C(C)C)C(C)C [WS-23, reference compound]	23.1	–	–

The next compounds have a lower EC50 (human TRPM8) than those just listed; values first:

EC50 (human TRPM8) [µM]	melting point [°C]	SMILES	also measured
1.11	–	C[C@H]1CCCC(C)(C)[C@@H]1C(=O)NCC(=O)c1ccccc1 [(1R)-10-10, (1R, 6S)-2,2,6-trimethyl-N-(2-oxo-2-phenylethyl) cyclohexane-1-carboxamide]	–
0.59	79 to 82	C[C@H]1CCCC(C)(C)[C@@H]1C(=O)NCCc1ccccc1 [(1R, 6S)-10-1, (1R, 6S)-2,2,6-trimethyl-N-phenethylcyclohexane-1-carboxamide]	cool-feeling persistence (oral cavity; 30 ppm aqueous solution): ≥ 30 min; cooling intensity (oral cavity; 30 ppm aqueous solution): very strong; cooling intensity compared with N,2,2,6-tetramethylcyclohexanecarboxamide, 1-menthol and WS-3 (oral cavity; 30 ppm aqueous solutions): apparently stronger; cooling intensity compared with WS-5 (oral cavity; 30 ppm aqueous solutions): stronger
0.6	95 to 98	C[C@H]1CCCC(C)(C)[C@@H]1C(=O)NCC(O)c1ccccc1 (stereo partly drawn) [(1R, 6S)-10-4, (1R, 6S)-N-(2-hydroxy-2-phenylethyl)-2,2,6-trimethylcyclohexane-1-carboxamide]	–
0.55	107 to 111	C[C@H]1CCCC(C)(C)[C@@H]1C(=O)NC[C@@H](O)c1ccccc1 [(1R, 6S)-10-6, (1R, 6S)-N-((S)-2-hydroxy-2-phenylethyl)-2,2,6-trimethylcyclohexane-1-carboxamide]	–
1.19	178 to 180	C[C@H]1CCCC(C)(C)[C@@H]1C(=O)NCCc1ccc(O)cc1 [(1R, 6S)-10-8, (1R, 6S)-N-(4-hydroxyphenethyl)-2,2,6-trimethylcyclohexane-1-carboxamide]	–
1.97	–	C[C@H]1CCCC(C)(C)[C@@H]1C(=O)NCc1cccs1 [(1R, 6S)-10-22]	–
1.59	–	COc1ccc(NC(=O)[C@@H]2[C@@H](C)CCCC2(C)C)cc1 [(1R, 6S)-10-28]	–
1.19	–	CC(=O)c1ccc(NC(=O)[C@@H]2[C@@H](C)CCCC2(C)C)cc1 [(1R, 6S)-10-35]	–
1.67	85 to 87	C[C@H]1CCCC(C)(C)[C@@H]1C(=O)Nc1ccc(CCO)cc1 [(1R, 6S)-10-36]	–
1.06	–	CSc1ccc(NC(=O)[C@@H]2[C@@H](C)CCCC2(C)C)cc1 [(1R, 6S)-10-41]	–
1.77	–	C[C@H]1CCCC(C)(C)[C@@H]1C(=O)Nc1ccc(CC#N)cc1 [(1R, 6S)-10-42]	–
1.74	–	C[C@H]1CCCC(C)(C)C1C(=O)OC[C@@H](O)c1ccccc1 (stereo partly drawn) [(1R, 6S)-10-51]	–
1.61	–	CCNC(=O)[C@@H]1C[C@H](C)CCC1C(C)C (stereo partly shown) [WS-3, reference compound]	–
0.73	–	CCOC(=O)CNC(=O)[C@@H]1C[C@H](C)CCC1C(C)C (stereo partly shown) [WS-5, reference compound]	–
